The record followed here is patent US5026704A, “Benzo[f]quinoxaline-2,3(1H,4H)-diones” (Novo Nordisk A/S, priority 1987, dated 1991).

The target of assay [1] is quisqualate type receptors. Nature of the assay: ^3 H-AMPA binding: displacement of ^3 H-AMPA from quisqualate type receptors in cerebral cortical membrane homogenate. Also on record: species or system rat. The conditions noted are these: displacement of 50% of specific ^3 H-AMPA binding; 5 nM ^3 H-AMPA, 0° C., 30 min, pH 7.1. How it is done: The pharmacological properties of the compounds of the present invention can be illustrated by determining their capability for displacing radioactively labelled 2-amino-3-hydroxy-5-methyl-4-isoxazolepropionic acid (AMPA) from the quisqualate type receptors.
The displacement activity of the compounds may be shown by determining the IC50 value which represents the concentration (μg/ml) which causes a displacement of 50% of the specific binding of ^3 H-AMPA.
500 μl of thawed rat cerebral cortical membrane homogenate in Tris-HCl (30 mM), CaCl2 (2.5 mM) and KSCN (100 mM) pH 7.1 were incubated at 0° C. for 30 min. with 25 μl ^3 H-AMPA (5 nM final concentration) and the test compound and buffer. Nonspecific binding was determined by incubation with L-glutamic acid (600 μM final concentration). The binding reaction was terminated by adding 5 ml of ice-cold buffer followed by filtration through Whatman GF/C glass fibre filters and 2×5 ml wash with ice-cold buffer. Bound radioactivity was measured by scintillation counting. IC50 was determined by Hill analysis of at least four concentrations of test compound.

In assay [2] the test system is quisqualic acid stimulated ^3 H-GABA-efflux from cultured cortical neurones. Nature of the assay: Antagonism of quisqualic acid stimulated ^3 H-GABA efflux from cultured cortical neurones (release experiments). The class given is cell-based, mouse. As to conditions: Rattus norvegicus, Cortical neurone; concentration which reduces the rate of quisqualic acid stimulated ^3 H-GABA efflux by 50%; 37° C., pH 7.4.

The structures appear in SMILES notation. Converted amounts (≈) assume the structure as drawn. A value given as a limit tells only on which side of the number the result lay.

For orientation: IC50 means the concentration that inhibits the measured activity by half. A higher IC50 goes with a need for much substance. A word on the EC50: it is the concentration at which the effect is half-maximal.

`Cn1c(=O)c(=O)[nH]c2cc([N+](=O)[O-])ccc21` [Compound 7, 1-Methyl-6-nitroquinoxaline-2,3(1H,4H)-dione]: in assay [1], the IC50 worked out at 0.96 µg/mL (≈ 4.34 µM). This compound also displayed an EC50 in assay [2] of 2.1 µg/mL (≈ 9.49 µM). The corresponding values for `Cn1c(=O)c(=O)[nH]c2c3ccccc3ccc21` [Compound 13, 4-Methylbenzo[f]quinoxaline-2,3(1H,4H)-dione] are 0.42 µg/mL (≈ 1.86 µM) and 2.1 µg/mL (≈ 9.28 µM). In assay [1], `O=c1[nH]c2cc([N+](=O)[O-])c(Cl)cc2n(C2CCCCC2)c1=O` [Compound 16, 1-Cyclohexyl-6-nitro-7-chlorquinoxaline-2,3(1H,4H)-dione] registered an IC50 of 0.69 µg/mL (≈ 2.13 µM). Regarding `O=c1[nH]c2c3ccccc3ccc2n(C2CCCCC2)c1=O` [Compound 27k, 4-Cyclohexylbenzo[f]quinoxaline-2,3(1H,4H)-dione], the IC50 in assay [1] was 0.61 µg/mL (≈ 2.07 µM). Moreover, the EC50 in assay [2] was above 4 µg/mL.
